According to BindingDB's records for patent US11839613 (Idorsia Pharmaceuticals, 2023):

Assays:
[1] = molecular target: Prostaglandin E2 receptor EP4 subtype (Homo sapiens, UniProt P35408); assay: hEP4 cAMP Assay
Protocol: Cells are counted washed and resuspended in assay buffer (AB; HBSS, 20 mM HEPES, 0.2% BSA; 2 mM IBMX). […] Plate is pre-incubated 45 minutes at RT. Subsequently, 2.5 microliters of PGE2 (final conc. 6 nM) are transferred into the assay plate. Plate is incubated 30 minutes at RT. […] For each compound concentration the percentage of cAMP compared to DMSO control value as average ±STDEV (each concentration is measured in duplicate) is calculated.

[2] = molecular target: Prostaglandin E2 receptor EP2 subtype (Homo sapiens, UniProt P43116); assay: hEP2 cAMP Assay
Protocol: Cells are counted washed and resuspended in assay buffer (AB; HBSS, 20 mM HEPES, 0.2% BSA; 2 mM IBMX). […] Plate is pre-incubated 45 minutes at RT. […] Plate is incubated 30 minutes at RT.

Sequence of Prostaglandin E2 receptor EP2 subtype (P43116 whole entry): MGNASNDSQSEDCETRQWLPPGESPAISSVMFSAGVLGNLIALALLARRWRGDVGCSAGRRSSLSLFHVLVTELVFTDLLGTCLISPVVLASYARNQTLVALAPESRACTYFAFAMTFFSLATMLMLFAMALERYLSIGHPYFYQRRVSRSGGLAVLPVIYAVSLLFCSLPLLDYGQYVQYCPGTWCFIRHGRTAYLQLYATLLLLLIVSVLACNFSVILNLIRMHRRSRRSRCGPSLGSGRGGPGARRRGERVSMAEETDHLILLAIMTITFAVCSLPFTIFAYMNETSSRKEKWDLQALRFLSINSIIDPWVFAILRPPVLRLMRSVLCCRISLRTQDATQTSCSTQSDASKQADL
Sequence of Prostaglandin E2 receptor EP4 subtype (P35408 whole entry): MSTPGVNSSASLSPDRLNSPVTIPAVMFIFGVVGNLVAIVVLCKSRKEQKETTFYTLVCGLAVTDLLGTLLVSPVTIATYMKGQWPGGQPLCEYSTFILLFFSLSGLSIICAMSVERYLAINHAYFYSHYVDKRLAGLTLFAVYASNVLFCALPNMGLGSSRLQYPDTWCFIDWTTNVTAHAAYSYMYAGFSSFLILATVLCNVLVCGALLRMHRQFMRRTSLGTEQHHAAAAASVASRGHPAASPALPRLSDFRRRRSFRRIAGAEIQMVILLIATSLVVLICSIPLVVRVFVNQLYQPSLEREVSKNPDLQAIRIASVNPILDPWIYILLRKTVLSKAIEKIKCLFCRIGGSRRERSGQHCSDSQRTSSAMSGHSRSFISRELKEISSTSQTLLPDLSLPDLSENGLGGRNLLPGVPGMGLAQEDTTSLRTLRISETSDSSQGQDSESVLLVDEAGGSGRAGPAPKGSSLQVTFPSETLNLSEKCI

Row | SMILES | IC50 [1] | IC50 [2]
1 | CCOc1cc(-c2cc(NCCc3c(OC)cc4c(c3C)OCCO4)ncn2)ccc1CC(=O)O [US11839613, Example 399] | 48 nM | 40 nM
2 | COc1cc2c(cc1CCNc1cc(-c3ccc(CC(=O)O)c(OC(F)(F)F)c3)ncn1)OCCO2 [US11839613, Example 450] | 80 nM | 165 nM
3 | COc1cc(-c2cc(NCCc3cc(F)c4sccc4c3)ncn2)ccc1CC(=O)O [US11839613, Example 475] | 114 nM | –
4 | COc1cc2c(c(C)c1CCNc1cc(-c3ccc(CC(=O)O)c(OC(C)C)c3)ncn1)OCCO2 [US11839613, Example 426] | – | 22 nM
5 | CCc1cc(-c2cc(NCCc3c(OC)cc4ccccc4c3C)ncn2)ccc1CC(=O)O [US11839613, Example 445] | 104 nM | 525 nM
6 | CCOc1cc(-c2cc(NCCc3cc4c(cc3OC)OCCO4)ncn2)cc(F)c1CC(=O)O [US11839613, Example 373] | – | 286 nM
7 | CCOc1cc(-c2cc(NCCc3ccc4ccsc4c3C)ncn2)sc1C(=O)O [US11839613, Example 376] | 11 nM | 188 nM
8 | CCCOc1cc(-c2cc(NCCc3ccc4sccc4c3F)ncn2)ccc1CC(=O)O [US11839613, Example 393] | 81 nM | 439 nM
9 | CCCc1cc(-c2cc(NCCc3cc4c(cc3OC)OCCO4)ncn2)ccc1C(=O)O [US11839613, Example 379] | 245 nM | 87 nM
10 | CCOc1cc2c(cc1CCNc1cc(-c3ccc(C(=O)O)c(OC4CC4)c3)ncn1)OCCO2 [US11839613, Example 447] | – | 16 nM
11 | CCOc1cc(-c2cc(NCCc3ccc4scc(Cl)c4c3)ncn2)ccc1CC(=O)O [US11839613, Example 431] | 43 nM | 460 nM
12 | CCOc1cc(-c2cc(NCCc3cc(C)c4sccc4c3)ncn2)sc1C(=O)O [US11839613, Example 391] | 6 nM | 243 nM
13 | COc1c(CCNc2cc(-c3ccc(CC(=O)O)c(CC(C)C)c3)ncn2)cc2ccsc2c1F [US11839613, Example 410] | 170 nM | 665 nM
14 | COc1c(CCNc2cc(-c3ccc(C(=O)O)c(SC)c3)ncn2)cc2ccsc2c1F [US11839613, Example 405] | 18 nM | 7 nM
15 | CCOc1cc(-c2cc(NCCc3c(OC)cc4ccccc4c3F)ncn2)ccc1C(=O)O [US11839613, Example 101] | 35 nM | 102 nM
16 | COc1cc2ccccc2c(C)c1CCNc1cc(-c2ccc(C(=O)O)c(OC3CC3)c2)ncn1 [US11839613, Example 448] | 26 nM | 55 nM
17 | CCOc1cc2c(cc1CCNc1cc(-c3ccc(CC(=O)O)c(OC(C)C)c3)ncn1)OCCO2 [US11839613, Example 425] | 356 nM | 226 nM
18 | CCOc1cc(-c2cc(NCCc3c(OC)cc4c(c3F)OCCO4)ncn2)ccc1C(=O)O [US11839613, Example 435] | 80 nM | 28 nM
19 | CC(C)Cc1cc(-c2cc(NCCc3ccc4sccc4c3F)ncn2)ccc1CC(=O)O [US11839613, Example 409] | 87 nM | 486 nM
20 | COc1cc2c(cc1CCNc1cc(-c3ccc(CC(=O)O)c(OC)c3)ncn1)OCCO2 [US11839613, Example 383] | 270 nM | 650 nM
21 | COc1cc(-c2cc(NCCc3c(OC)cc4c(c3C)OCCO4)ncn2)ccc1CC(=O)O [US11839613, Example 434] | 95 nM | –
22 | COc1cc(-c2cc(NCCc3cc(F)c4sccc4c3)ncn2)ccc1OCCC(=O)O [US11839613, Example 438] | 29 nM | 708 nM
23 | COc1cc(-c2cc(NCCc3ccc4sccc4c3F)ncn2)ccc1OCCC(=O)O [US11839613, Example 437] | 37 nM | 227 nM
24 | COc1cc2c(cc1CCNc1cc(-c3ccc(CC(=O)O)c(CC(C)C)c3)ncn1)OCCO2 [US11839613, Example 411] | – | 325 nM
25 | CCCc1cc(-c2cc(NCCc3cc4c(cc3OC)OCCO4)ncn2)ccc1CC(=O)O [US11839613, Example 387] | – | 205 nM
26 | CCOc1cc(-c2cc(NCCc3cc(F)c4sccc4c3)ncn2)sc1C(=O)O [US11839613, Example 362] | 1 nM | –
27 | CCOc1cc2c(cc1CCNc1cc(-c3ccc(CC(=O)O)c(OC(F)(F)F)c3)ncn1)OCCO2 [US11839613, Example 427] | 190 nM | –

The remaining lines, values ahead:

Row | IC50 [1] | IC50 [2] | SMILES
28 | 68 nM | 48 nM | CCOc1cc(-c2cc(NCCc3cc4ccsc4cc3OC)ncn2)cc(F)c1CC(=O)O [US11839613, Example 371]
29 | 98 nM | 160 nM | CCc1cc(-c2cc(NCCc3c(OC)cc4ccccc4c3C)ncn2)ccc1C(=O)O [US11839613, Example 446]
30 | 119 nM | 165 nM | COc1cc2sccc2cc1CCNc1cc(-c2ccc(CC(=O)O)c(OC)c2)ncn1 [US11839613, Example 381]
31 | 18 nM | 492 nM | CCOc1cc(-c2cc(NCCc3cc(F)c4sccc4c3)ncn2)ccc1OCCC(=O)O [US11839613, Example 422]
32 | 139 nM | 33 nM | C#Cc1cc2c(cc1CCNc1cc(-c3ccc(C(=O)O)c(OCC)c3)ncn1)OCCO2 [US11839613, Example 439]
33 | 37 nM | 119 nM | CCOc1cc(-c2cc(NCCc3ccc4sccc4c3F)ncn2)ccc1CC(=O)O [US11839613, Example 368]
34 | 92 nM | 27 nM | CCCc1cc(-c2cc(NCCc3cc4ccsc4cc3OC)ncn2)ccc1C(=O)O [US11839613, Example 377]
35 | 65 nM | 25 nM | C#Cc1cc2c(cc1CCNc1cc(-c3ccc(CC(=O)O)c(CCC)c3)ncn1)OCCO2 [US11839613, Example 440]
36 | 111 nM | 156 nM | CCCOc1cc(-c2cc(NCCc3cc4ccsc4cc3OC)ncn2)ccc1CC(=O)O [US11839613, Example 392]
37 | 323 nM | – | CCCc1cc(-c2cc(NCCc3ccc4sccc4c3F)ncn2)ccc1C(C)C(=O)O (racemic) [US11839613, Example 482]
38 | 462 nM | 1180 nM | CCOc1cc(-c2cc(NCCc3cc4ccccc4cc3NC)ncn2)ccc1OCC(=O)O [US11839613, Example 274]
39 | 38 nM | 119 nM | CC(C)Cc1cc(-c2cc(NCCc3ccc4sccc4c3F)ncn2)ccc1C(=O)O [US11839613, Example 413]
40 | 20 nM | 126 nM | CCCc1cc(-c2cc(NCCc3c(OC)cc4c(c3F)OCCO4)ncn2)ccc1CC(=O)O [US11839613, Example 408]
41 | 18 nM | 37 nM | CSc1cc(-c2cc(NCCc3cc(F)c4sccc4c3)ncn2)ccc1C(=O)O [US11839613, Example 364]
42 | 57 nM | 106 nM | COc1c(CCNc2cc(-c3ccc(C(=O)O)c(CC(C)C)c3)ncn2)cc2ccsc2c1F [US11839613, Example 415]
43 | 81 nM | 312 nM | CCOc1cc(-c2cc(NCCc3ccc4sccc4c3)ncn2)cc(F)c1CC(=O)O [US11839613, Example 370]
44 | 66 nM | 110 nM | CCCc1cc(-c2cc(NCCc3ccc4sccc4c3F)ncn2)ccc1C(=O)O [US11839613, Example 378]
45 | 68 nM | 270 nM | CCOc1cc(-c2cc(NCCc3cc(F)c4sccc4c3)ncn2)ccc1C(=O)O [US11839613, Example 361]

Row | IC50 [1] | IC50 [2] | SMILES
46 | 45 nM | 304 nM | CCOc1cc(-c2cc(NCCc3c(OC)cc4ccccc4c3C)ncn2)cc(F)c1CC(=O)O [US11839613, Example 374]
47 | 6 nM | 230 nM | CCOc1cc(-c2cc(NCCc3c(OC)cc4ccccc4c3C)ncn2)ccc1OCCC(=O)O [US11839613, Example 423]
48 | 80 nM | 22 nM | CCc1cc(-c2cc(NCCc3c(OC)cc4c(c3C)OCCO4)ncn2)ccc1CC(=O)O [US11839613, Example 444]
49 | 27 nM | 247 nM | CCOc1cc(-c2cc(NCCc3ccc4sccc4c3F)ncn2)ccc1OCCC(=O)O [US11839613, Example 421]
50 | 37 nM | – | COc1cc2c(c(C)c1CCNc1cc(-c3ccc(C(=O)O)c(SC)c3)ncn1)OCCO2 [US11839613, Example 400]
51 | 79 nM | 57 nM | CCOc1cc2c(cc1CCNc1cc(-c3ccc(CC(=O)O)c(CC(C)C)c3)ncn1)OCCO2 [US11839613, Example 412]
52 | 1 nM | 6 nM | CCOc1cc(-c2cc(NCCc3ccc4sccc4c3F)ncn2)sc1C(=O)O [US11839613, Example 367]
53 | 43 nM | 549 nM | COc1cc2ccccc2c(C)c1CCNc1cc(-c2ccc(CC(=O)O)c(OC(F)F)c2)ncn1 [US11839613, Example 443]
54 | – | 25 nM | CCCc1cc(-c2cc(NCCc3c(OC)cc4c(c3C)OCCO4)ncn2)ccc1CC(=O)O [US11839613, Example 397]
55 | 35 nM | 534 nM | CCOc1cc(-c2cc(NCCc3cc(F)c4sccc4c3)ncn2)ccc1CC(=O)O [US11839613, Example 363]
56 | – | 224 nM | COc1cc2c(c(F)c1CCNc1cc(-c3ccc(CC(=O)O)c(OC(F)F)c3)ncn1)OCCO2 [US11839613, Example 442]
57 | 66 nM | 294 nM | CCOc1cc(-c2cc(NCCc3ccc4sccc4c3F)ncn2)cc(F)c1CC(=O)O [US11839613, Example 375]
58 | 57 nM | 231 nM | CCCc1cc(-c2cc(NCCc3cc(F)c4sccc4c3)ncn2)ccc1C(=O)O [US11839613, Example 389]
59 | 20 nM | 1 nM | COc1cc2c(c(C)c1CCNc1cc(-c3ccc(C(=O)O)c(OC4CCC4)c3)ncn1)OCCO2 [US11839613, Example 396]
60 | 112 nM | 135 nM | CCOc1cc2c(cc1CCNc1cc(-c3cc(F)c(CC(=O)O)c(OCC)c3)ncn1)OCCO2 [US11839613, Example 403]
61 | 50 nM | – | COc1cc2c(c(C)c1CCNc1cc(-c3ccc(CC(=O)O)c(OC(F)(F)F)c3)ncn1)OCCO2 [US11839613, Example 428]
62 | – | 111 nM | CCOc1cc(-c2cc(NCCc3ccc4sccc4c3C)ncn2)cc(F)c1CC(=O)O [US11839613, Example 372]
